Assay results: article PMC11431997, “Baicalin Inhibits FIPV Infection In Vitro by Modulating the PI3K-AKT Pathway and Apoptosis Pathway” (International Journal of Molecular Sciences, 2024)
Values after ≈ are worked out from the molar mass of the structure shown. Values joined by “and” are separate entries in the source; they are usually repeats but may differ in a detail not shown here. Equal entries are not always repeated.

Tests used:
[1] = tested on: CRFK cells; assay: Cytotoxicity assay of the compounds (CCK-8); format: cell-based, feline; details: cat, 72 h
Protocol: (§1) CRFK cells were seeded in 96-well cell culture plates at a density of 1 × 10^4 cells/well and incubated at 37 °C with 5% CO2 until the cell density reached more than 90%. Then, the medium was discarded, and the cells were washed twice with PBS. The compound to be tested was diluted in 10 successive gradients with MM at a 2-fold multiplicity (at the same time, there was a cell control group of 100 μL of MM, and 3 replicate wells were set for each concentration and group) and incubated at 37 °C with 5% CO2 for 72 h; then, the liquid in the plate was discarded and washed twice with PBS. Afterwards, the cytopathic ratios (CRs) of the compounds to cells were calculated according to the instructions of the Cell Counting Kit-8 (MCE, NJ, USA), and the CC50s of the compounds and the MNTCs at which the compounds could survive more than 90% of the cells were calculated using GraphPad Prism 10. In subsequent experiments, the final concentrations of the compounds after addition were the MNTCs of the compounds unless otherwise specified.

[2] = Cytotoxicity assay of the compounds (CCK-8); format: cell-based, feline; details: cat
Protocol: as §1

[3] = tested on: PI3K-AKT signaling pathway and apoptosis pathway; assay: 4D-LFQ proteomics of FIPV-infected CRFK cells; format: cell-based, feline; details: 48 h
Description: According to the methods of Section 4.6, post-infection cells were collected at the appropriate time of infection and then quickly frozen in liquid nitrogen. The cell control group was named the control group (Group C), the virus control group was named the FIPV group (Group F), the compound treatment group was named the treatment group (Group T), and each group contained three replicate samples. Afterwards, they were sent to Shanghai Applied Protein Technology Co., Ltd. (Shanghai, China) for 4D-LFQ proteomics analysis.

[4] = tested on: FIPV (BJ-01); assay: Impact of the compound on FIPV adsorption (cells pre-incubated with compound, CCK-8); format: cell-based, feline infectious peritonitis virus; details: cells co-cultured with baicalin before FIPV, all times
Protocol: (§2) According to previous methods, CRFK cells were seeded in 96-well cell culture plates at a density of 1 × 10^4 cells/well and cultured at 37 °C in 5% CO2 until the cell density was greater than 90%. Then, the medium was discarded, and the cells were washed twice with PBS. The compound was first added into 96-well cell culture plates at 100 μL/well and then incubated at 37 °C and 5% CO2 for 0.25, 0.2, 1, 2, 4, and 6 h, respectively, then incubated at 4 °C for 1 h. After that, the liquid in the plates was removed and washed with PBS twice. Then, added FIPV into cells at 100 μL/well and incubated at 37 °C and 5% CO2 (at the same time, a cell control group with only 100 μL of MM and a viral control group with only 100 μL of FIPV were added). There were 3 replicate wells for each compound and group. After the CPE of the viral control group reached more than 80%, the liquid in the culture plate was removed and washed twice with PBS. Afterwards, the IR of the compounds against the virus was computed according to the directions of the Cell Counting Kit-8.

[5] = tested on: FIPV (BJ-01); assay: Direct inactivation of FIPV (compound pre-mixed with virus, CCK-8); format: cell-based, feline infectious peritonitis virus
Protocol: as §2, with “mixed with FIPV in the ratio of 1:1 and incubated at 37 °C and 5% CO2 for 30, 60, 90, 120, and 150 min, respectively; then, the mixture of different incubation durations were” for “first”, “and” for “and then”, “CO2, respectively” for “CO2 for 0.25, 0.2, 1, 2, 4, and 6 h, respectively, then incubated at 4 °C for 1 h. After that, the liquid in the plates was removed and washed with PBS twice. Then, added FIPV into cells at 100 μL/well and incubated at 37 °C and 5% CO2”

[6] = tested on: FIPV (BJ-01); assay: Inhibitory effects of compounds on FIPV-infected cells (compound and FIPV added simultaneously, CCK-8); format: cell-based, feline infectious peritonitis virus
Protocol: According to previous methods, CRFK cells were seeded in 96-well cell culture plates at a density of 1 × 10^4 cells/well and cultured at 37 °C in 5% CO2 until the cell density was greater than 90%. After the cells were washed twice with PBS, 50 μL of test compound and 50 μL of FIPV were added to each well simultaneously (at the same time, a cell control group with only 100 μL of MM and a viral control group with only 100 μL of FIPV were added). There were 3 replicate wells for each compound and group. After 72 h of incubation at 37 °C and 5% CO2, the liquid in the plate was discarded, and the cells were washed twice with PBS. The MIR of the compounds to the virus was calculated according to the instructions of the Cell Counting Kit-8. Afterwards, the compounds with MIR > 50% were diluted to 8 concentrations with MM, and the above process was repeated. Then, the EC50 values of the compounds were calculated with GraphPad Prism 10.

[7] = tested on: FIPV-infected CRFK cells; assay: FIPV-induced apoptosis, Annexin V-FITC/PI assay; format: cell-based, feline; details: baicalin-treated FIPV-infected CRFK cells, 24 h after infection, p < 0.05
Protocol: CRFK cells were seeded in 96-well cell culture plates at a density of 1 × 10^4 cells/well and cultured at 37 °C in 5% CO2 until the cell density was greater than 90%. After the cells were washed twice with PBS, 50 μL of test compound and 50 μL of FIPV were added to each well simultaneously (at the same time, a cell control group with only 100 μL of MM and a viral control group with only 100 μL of FIPV were added). Three replicate wells were used for each group. […] Then, apoptosis was detected according to the instructions of the Annexin V-FITC/PI Apoptosis Detection Kit (MCE, USA). The results were observed using a fluorescence inverted microscope, and the fluorescence intensity was analyzed using ImageJ.

[8] = treatment/FIPV comparison group

## O=C(O)[C@H]1O[C@@H](Oc2cc3oc(-c4ccccc4)cc(=O)c3c(O)c2O)[C@H](O)[C@@H](O)[C@@H]1O [Baicalin]
[1]
  MNTC (maximum noncytotoxic concentration): 31.36 µg/mL
[2]
  CC50 at 72 h: 114 µg/mL (≈ 257 µM)
[3]; treatment group vs FIPV group
  AKT2 level (4D-LFQ): significantly upregulated
  AKT3 level (4D-LFQ): tended to increase
  EGFR level (4D-LFQ): significantly upregulated
  PIK3CA level (4D-LFQ): significantly upregulated
[3]; [8]
  BAX level (4D-LFQ): downregulated but not significant
  BCL2L level (4D-LFQ): upregulated but not significant
  CASP9 level (4D-LFQ): significantly downregulated
[4]
  inhibition rate on FIPV infection (adsorption): ≤ 50%
[5]; 150 min of co-culture of baicalin with FIPV
  inhibition rate on FIPV (direct inactivation): ~100%
[5]; baicalin co-cultured with FIPV 30-150 min before addition to CRFK cells, all times
  inhibition rate on FIPV (direct inactivation): more than 50%
[6]; Alphacoronavirus 1, FIPV in CRFK cells, gradient dilution, 72 h, CCK-8
  EC50: 20.8 µg/mL (≈ 46.6 µM)
[6]; FIPV, CRFK cells
  SI (CC50/EC50): > 3 and 5.5
[7]
  fluorescence intensity per unit area of cells (early apoptosis, green fluorescence): significantly lower
